{"source": "patent US20130303788A1", "about": "“METHOD OF PRODUCING BIPHENOLIC COMPOUND, NOVEL BIPHENYL COMPOUND AND SYNTHESIS METHOD THEREOF, AND PHARMACEUTICAL COMPOSITION FOR TREATING PARKINSON'S DISEASE” (Tzu Chi University, priority 2012, published 2013)", "key": {"[1]": {"test_system": "SH-SY5Y human neuroblastoma cells", "assay": "Effects on oxidative stress (TBHP or CHP), MTT assay", "type": "cell-based", "details": "10 μM for 30 minutes, then CHP 300 μM for 3 hours; vs pathological control; FIG. 9", "description": "3-(4,5-Dimethylthiazol-2-yl)-2,5-diphenyltetrazolium bromide (MTT) assay was conducted generally as follows. A MTT solution was added to culture of the cells in the respective well so that a MTT concentration of 0.5 mg/mL was reached, followed by cultivation for 4 hours. The liquid in the respective well was removed, and dimethylsulfoxide (DMSO) was added into the respective well to dissolve formazan dye. Absorbance of the mixture in the respective well at 570 nm (OD570) was measured using an OPTImax microplate reader (Molecular Devices).\nThe SH-SY5Y human neuroblastoma cells were respectively treated with products 1, 2, 3, 4, 5, 7, and 3,3′-diallyl-biphenyl-4,4′-diol (compound 55) (10 μM) for 30 minutes. 3,3′-diallyl-biphenyl-4,4′-diol (compound 55) was prepared from commercially available 4,4′-biphenol (compound 54) generally according to the method as described in Ablard, F. et al., Bioorg. Med. Chem. Lett. 2007, 17, 4428. Subsequently, the SH-SY5Y human neuroblastoma cells were exposed to cumene hydroperoxide (CHP) or tert-butyl hydroperoxide (TBHP) (300 μM, Riedel-de Haen) for 3 hours after the treatment with the respective biphenolic compound of formula (I).\nCell viability was evaluated as follows. The SH-SY5Y human neuroblastoma cells were subjected to the MTT assay as described in section 1 of General Procedures. The relative cell viability (%) was calculated by substituting the absorbance into the following formula:\nwhere D=relative cell viability • E=OD570 of the pathological control, or the SH-SY5Y human neuroblastoma cells treated with the respective biphenolic compound of formula (I) • F=OD570 of the normal control The obtained data were subjected to the statistical analysis as described in section 5 of General Procedures."}, "[2]": {"test_system": "mouse model of PD (6-OHDA unilateral striatal lesion)", "assay": "Apomorphine-induced rotation test in 6-OHDA mouse model of PD", "type": "in vivo, NMRI mice", "description": "The respective NMRI mouse was anesthetized with ketamine ([…], intraperitoneally). Subsequently, the respective NMRI mouse was placed into a stereotactic frame with nose and ear bars specially designed for mice. 6-hydroxydopamine (6-OHDA) was injected with saline containing 0.02% ascorbic acid (as a vehicle) into the right striatum of the respective NMRI mouse so that unilateral striatal lesion was induced (i.e., damage to dopaminergic neurons in the unilateral striatum was induced). The injection was conducted at a rate of 1 μL/minute using a Hamilton syringe at the following coordinates: AP: −0.9 mm; ML: −1.9 mm; DV: −2.2 mm with respect to bregma, and a final dose of 15 μg was administered. The needle was left standing for 5 minutes after the injection was finished, and was slowly withdrawn.\nThe respective NMRI mouse was allowed to habituate to the ambient environment for 10 minutes before the apomorphine-induced rotation test was performed. Apomorphine was then injected intraperitoneally into the respective NMRI mouse at a dose of 0.5 mg/kg. The respective NMRI mouse was placed in a glass bowl with a diameter of 20 cm and was attached to an automatic rotometer (TSE, Bad Homburg, Germany) via a specially designed harness. Each circular movement exceeding 30° was recorded. The contralateral movements (toward the nonlesioned side) and ipsilateral movements (toward the lesioned side) of the NMRI mice were counted during a period of 60 minutes. The net rotation was calculated according to the following formula:\nwhere A=net rotation • B=the total number of ipsilateral movements during the period of 60 minutes • C=the total number of contralateral movements during the period of 60 minutes 4. Determination of TH (Tyrosine Hydroxylase) Expression Level and iNOS (Inducible Nitric Oxide Synthase) Expression Level: […]\n6-OHDA was injected into NMRI mice according to the method as described in section 2 of General procedures. Product 1 or product 2 was administered intraperitoneally to the respective NMRI mouse at a dose of 5 mg/kg, 1 mg/kg, 0.5 mg/kg, 0.1 mg/kg, or 0.05 mg/kg for 14 consecutive days, starting on Day 7 after the 6-OHDA injection. NMRI mice into which a vehicle (saline containing 0.02% ascorbic acid) was injected (generally according to the method as described in section 2 of General Procedures, except that 6-OHDA was not injected), and which were not treated with product 1 or product 2 after the injection of the vehicle, served as a sham operated control. NMRI mice into which 6-OHDA was injected and which were not treated with product 1 or product 2 after the 6-OHDA injection served as a pathological control. The rotational behavior of the NMRI mice was evaluated using the apomorphine-induced rotation test as described in section 3 of General Procedures on Days 7, 14, and 21 after the 6-OHDA injection."}, "[3]": {"test_system": "excitotoxicity induced by excitatory amino acids", "details": "Lin Yi-Ruu et al. (2006); cited from earlier work"}}, "data": [{"compound": "C=CCc1ccc(O)c(-c2ccc(O)c(CC=C)c2)c1", "note": "[product 1, 5,3′-Diallyl-biphenyl-2,4′-diol]", "values": [{"measurement": "prevention of cell death (relative cell viability) after exposure to CHP", "setting": "[1]", "value": "significantly prevented cell death"}, {"measurement": "unilateral rotations (apomorphine-induced), subchronic post-treatment, 0.1 mg/kg", "setting": "[2]; 0.1 mg/kg i.p., 14 consecutive days starting Day 7 after 6-OHDA, FIG. 13", "value": "not a low dose of product 1"}, {"measurement": "unilateral rotations (apomorphine-induced), subchronic post-treatment, 0.5 mg/kg", "setting": "[2]; 0.5 mg/kg i.p., 14 consecutive days starting Day 7 after 6-OHDA, FIG. 13", "value": "significantly inhibited unilateral rotations"}, {"measurement": "unilateral rotations (apomorphine-induced), subchronic post-treatment, 1 mg/kg", "setting": "[2]; 1 mg/kg i.p., 14 consecutive days starting Day 7 after 6-OHDA, FIG. 13", "value": "significantly inhibited unilateral rotations"}, {"measurement": "contralateral movements induced by apomorphine, subchronic treatment", "setting": "[2]; 5 mg/kg or 10 mg/kg i.p. for 14 consecutive days after 6-OHDA injection, FIG. 11", "value": "significantly reduced the contralateral movements induced by apomorphine"}, {"measurement": "apomorphine-induced rotation behavior after single administration", "setting": "[2]; 5 mg/kg or 10 mg/kg i.p. once, 30 minutes before 6-OHDA, tested one week after 6-OHDA, data not shown", "value": "did not prevent the apomorphine-induced rotation behavior"}, {"measurement": "neuroprotective effects via anti-oxidative abilities and antagonist actions against excitotoxicity", "setting": "[3]", "value": "able to exert neuroprotective effects"}]}]}
